Reference: ChEMBL document CHEMBL1201862, “PubChem BioAssay data set” (2004)
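All cell lines were grown in 96-well plates and treated with compound for 48 hours. GI50 marks 50% less growth.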 Activity calls are given as the source filed them. Rule as the data show it: active = GI50 up to about 1.1 µM and inactive = higher.

Key:
Experiment in all cases: NCI tumour cell line growth inhibition, 48 h
786-0 = tested on: 786-0
ACHN = tested on: ACHN
HOP-92 = tested on: HOP-92
HT-29 = tested on: HT-29
IGROV-1 = tested on: IGROV-1
Malme-3M = tested on: Malme-3M
NCI-H23 = tested on: NCI-H23
NCI-H522 = tested on: NCI-H522
RPMI-8226 = tested on: RPMI-8226
RXF 393 = tested on: RXF 393
SF-539 = tested on: SF-539
SK-MEL-28 = tested on: SK-MEL-28
SNB-75 = tested on: SNB-75
SR = tested on: SR
SW-620 = tested on: SW-620
UACC-257 = tested on: UACC-257
UO-31 = tested on: UO-31
CAKI-1 = tested on: CAKI-1
KM12 = tested on: KM12

SMILES | GI50 (786-0) | GI50 (ACHN) | GI50 (HOP-92) | GI50 (HT-29) | GI50 (IGROV-1) | GI50 (Malme-3M) | GI50 (NCI-H23) | GI50 (NCI-H522) | GI50 (RPMI-8226) | GI50 (RXF 393) | GI50 (SF-539) | GI50 (SK-MEL-28) | GI50 (SNB-75) | GI50 (SR) | GI50 (SW-620) | GI50 (UACC-257) | GI50 (UO-31) | GI50 (CAKI-1) | GI50 (KM12)
O=C1OC(c2ccccc2)=N/C1=C/NC(Cc1c[nH]cn1)C(=O)O (stereo not drawn) | > 100 µM (inactive) | > 100 µM (inactive) | > 100 µM (inactive) | > 100 µM (inactive) | > 100 µM (inactive) | > 100 µM (inactive) | > 100 µM (inactive) | > 100 µM (inactive) | > 100 µM (inactive) | > 100 µM (inactive) | > 100 µM (inactive) | > 100 µM (inactive) | > 100 µM (inactive) | > 100 µM (inactive) | > 100 µM (inactive) | > 100 µM (inactive) | > 100 µM (inactive) |  | 
COc1ccc2c(c1)c(Cc1c(C)n(C)c3ccc(OC)cc13)c(C)n2C | 86.1 µM (inactive) | > 100 µM (inactive) | > 100 µM (inactive) | > 100 µM (inactive) | > 100 µM (inactive) | > 100 µM (inactive) | > 100 µM (inactive) | 34 µM (inactive) | > 100 µM (inactive) | 47.8 µM (inactive) | > 100 µM (inactive) | > 100 µM (inactive) | > 100 µM (inactive) | > 100 µM (inactive) | > 100 µM (inactive) | > 100 µM (inactive) | > 100 µM (inactive) | > 100 µM (inactive) | > 100 µM (inactive)
O=C(CCc1cc(-c2ccco2)n(-c2ccc([N+](=O)[O-])cc2[N+](=O)[O-])n1)Nc1ccccc1 | > 100 µM (inactive) | > 100 µM (inactive) | > 100 µM (inactive) | > 100 µM (inactive) | > 100 µM (inactive) | 32.8 µM (inactive) | > 100 µM (inactive) | > 100 µM (inactive) | > 100 µM (inactive) | > 100 µM (inactive) | > 100 µM (inactive) | > 100 µM (inactive) | > 100 µM (inactive) | > 100 µM (inactive) | > 100 µM (inactive) | > 100 µM (inactive) | > 100 µM (inactive) | > 100 µM (inactive) | > 100 µM (inactive)
Cc1ccc(S(=O)(=O)N2CCN(C=S)CC2)cc1 | > 100 µM (inactive) | > 100 µM (inactive) |  | > 100 µM (inactive) | > 100 µM (inactive) | > 100 µM (inactive) | > 100 µM (inactive) | > 100 µM (inactive) |  | > 100 µM (inactive) | > 100 µM (inactive) | > 100 µM (inactive) | > 100 µM (inactive) | > 100 µM (inactive) | > 100 µM (inactive) | > 100 µM (inactive) | > 100 µM (inactive) |  | > 100 µM (inactive)
CCCCCC/C=C1\CCC(CN2CCOCC2)C1=O (stereo not drawn) | 4.23 µM (inactive) | 17.4 µM (inactive) | 16.3 µM (inactive) | 17.7 µM (inactive) | 19 µM (inactive) | 16.3 µM (inactive) | 16.9 µM (inactive) | 7.87 µM (inactive) | 2.24 µM (inactive) |  | 16.9 µM (inactive) | 16.9 µM (inactive) | 21 µM (inactive) | 4.31 µM (inactive) | 8.2 µM (inactive) | 15.1 µM (inactive) | 14.3 µM (inactive) | 16.8 µM (inactive) | 7.64 µM (inactive)
CC1(C)COC(c2c(-c3ccccc3)noc2C[S+]([O-])c2ccccc2)=N1 (stereo not drawn) | 76.6 µM (inactive) | 40 µM (inactive) |  | 38.5 µM (inactive) | 88.5 µM (inactive) | 46.1 µM (inactive) | 32.3 µM (inactive) | 36.1 µM (inactive) | 22.1 µM (inactive) | > 100 µM (inactive) | 59.6 µM (inactive) | 33.1 µM (inactive) | 29.6 µM (inactive) | 29.1 µM (inactive) | > 100 µM (inactive) | 52.1 µM (inactive) | 29.2 µM (inactive) | 61.5 µM (inactive) | 36.1 µM (inactive)
Nc1nc2[nH]cnc2c(=O)[nH]1 | > 100 µM (inactive) | > 100 µM (inactive) | > 100 µM (inactive) | > 100 µM (inactive) | > 100 µM (inactive) | > 100 µM (inactive) | > 100 µM (inactive) | > 100 µM (inactive) | > 100 µM (inactive) | > 100 µM (inactive) | > 100 µM (inactive) | > 100 µM (inactive) | 90.6 µM (inactive) | > 100 µM (inactive) | > 100 µM (inactive) | > 100 µM (inactive) | > 100 µM (inactive) | > 100 µM (inactive) | > 100 µM (inactive)
CC[C@@H](C)[C@@H]1NC(=O)C(C(C)=O)=C1O | 22.4 µM (inactive) | 16.5 µM (inactive) | 43.4 µM (inactive) | 32.1 µM (inactive) | 25.6 µM (inactive) | 25.1 µM (inactive) | 20.1 µM (inactive) | 20.1 µM (inactive) | 26.2 µM (inactive) | 26.7 µM (inactive) | 23.1 µM (inactive) | 3.02 µM (inactive) | 25.4 µM (inactive) | 14.9 µM (inactive) | 24.2 µM (inactive) | 34.2 µM (inactive) | 30.4 µM (inactive) | 0.456 µM (active) | 15.6 µM (inactive)
Cn1cnc([N+](=O)[O-])c1Sc1nc2ccccc2o1 | 14 µM (inactive) | 11.5 µM (inactive) | 4.24 µM (inactive) | 3.44 µM (inactive) | 13.2 µM (inactive) | 5.41 µM (inactive) | 5.22 µM (inactive) | 1.8 µM (inactive) | 3.45 µM (inactive) | 8.91 µM (inactive) | 9.64 µM (inactive) | 5.78 µM (inactive) | 16.6 µM (inactive) | 2.49 µM (inactive) | 3.72 µM (inactive) | 5.86 µM (inactive) | 12.2 µM (inactive) | 1.9 µM (inactive) | 5.18 µM (inactive)
CC1=C(O)C(=O)C2C(=O)C1C(C)C2c1ccc(Cl)cc1 (stereo not drawn) | > 100 µM (inactive) | > 100 µM (inactive) | > 100 µM (inactive) | > 100 µM (inactive) | > 100 µM (inactive) | > 100 µM (inactive) | > 100 µM (inactive) | > 100 µM (inactive) | > 100 µM (inactive) | > 100 µM (inactive) | > 100 µM (inactive) | > 100 µM (inactive) | 72.3 µM (inactive) | > 100 µM (inactive) | > 100 µM (inactive) |  | > 100 µM (inactive) | > 100 µM (inactive) | > 100 µM (inactive)
CC(C)(C)OC(=O)C#CC[C@H]1CCCC1/C=C/C(O)=C1/C(=O)NC(CCCNC(=O)OC(C)(C)C)C1=O (stereo partly drawn) | 40.6 µM (inactive) | 40.7 µM (inactive) | 23.7 µM (inactive) | 40.1 µM (inactive) | 39.5 µM (inactive) | 21.3 µM (inactive) | 24.9 µM (inactive) | 16.5 µM (inactive) | 33.2 µM (inactive) | 14.7 µM (inactive) | 26.4 µM (inactive) | 17.1 µM (inactive) | 32.6 µM (inactive) | 26.2 µM (inactive) | 38.5 µM (inactive) | 24.2 µM (inactive) | 33.7 µM (inactive) | 38.8 µM (inactive) | 41.6 µM (inactive)
S=C1SCC2CCCN12 (stereo not drawn) | > 100 µM (inactive) | > 100 µM (inactive) | > 100 µM (inactive) | > 100 µM (inactive) | > 100 µM (inactive) | > 100 µM (inactive) |  | > 100 µM (inactive) | > 100 µM (inactive) | > 100 µM (inactive) | > 100 µM (inactive) |  | > 100 µM (inactive) | > 100 µM (inactive) | > 100 µM (inactive) | > 100 µM (inactive) | > 100 µM (inactive) | > 100 µM (inactive) | > 100 µM (inactive)
COC12C=C(C)C(CC1)CC2C(=O)O (stereo not drawn) | > 100 µM (inactive) | > 100 µM (inactive) | > 100 µM (inactive) | > 100 µM (inactive) | > 100 µM (inactive) | > 100 µM (inactive) | > 100 µM (inactive) | > 100 µM (inactive) | > 100 µM (inactive) | > 100 µM (inactive) | > 100 µM (inactive) | > 100 µM (inactive) | > 100 µM (inactive) | > 100 µM (inactive) | > 100 µM (inactive) | > 100 µM (inactive) | > 100 µM (inactive) | > 100 µM (inactive) | > 100 µM (inactive)
COC(=O)[C@@]1(C(C)CC(=O)O)CCCCC1=O (stereo partly drawn) | 27 µM (inactive) | > 100 µM (inactive) | > 100 µM (inactive) | > 100 µM (inactive) | > 100 µM (inactive) | > 100 µM (inactive) | > 100 µM (inactive) | > 100 µM (inactive) | 34.3 µM (inactive) | > 100 µM (inactive) | > 100 µM (inactive) | > 100 µM (inactive) | > 100 µM (inactive) | 37.8 µM (inactive) |  | > 100 µM (inactive) | > 100 µM (inactive) | > 100 µM (inactive) | > 100 µM (inactive)
O=C1/C(=C/c2ccc(Cl)cc2)CCC1CCN1CCOCC1 (stereo not drawn) | 72.3 µM (inactive) | 60.4 µM (inactive) | 75.7 µM (inactive) | 32.8 µM (inactive) | > 100 µM (inactive) | > 100 µM (inactive) | 86.1 µM (inactive) |  | 23.8 µM (inactive) | 47.9 µM (inactive) | > 100 µM (inactive) | > 100 µM (inactive) | > 100 µM (inactive) | 26.1 µM (inactive) | > 100 µM (inactive) | > 100 µM (inactive) | 68.7 µM (inactive) | 76.2 µM (inactive) | 40.8 µM (inactive)
